For the first test, the target named is GST-Xa-hAAK1 (Homo sapiens (Human), UniProt Q2M2I8). Kind of test: biochemical.
Chain of GST-Xa-hAAK1 (Q2M2I8 whole entry): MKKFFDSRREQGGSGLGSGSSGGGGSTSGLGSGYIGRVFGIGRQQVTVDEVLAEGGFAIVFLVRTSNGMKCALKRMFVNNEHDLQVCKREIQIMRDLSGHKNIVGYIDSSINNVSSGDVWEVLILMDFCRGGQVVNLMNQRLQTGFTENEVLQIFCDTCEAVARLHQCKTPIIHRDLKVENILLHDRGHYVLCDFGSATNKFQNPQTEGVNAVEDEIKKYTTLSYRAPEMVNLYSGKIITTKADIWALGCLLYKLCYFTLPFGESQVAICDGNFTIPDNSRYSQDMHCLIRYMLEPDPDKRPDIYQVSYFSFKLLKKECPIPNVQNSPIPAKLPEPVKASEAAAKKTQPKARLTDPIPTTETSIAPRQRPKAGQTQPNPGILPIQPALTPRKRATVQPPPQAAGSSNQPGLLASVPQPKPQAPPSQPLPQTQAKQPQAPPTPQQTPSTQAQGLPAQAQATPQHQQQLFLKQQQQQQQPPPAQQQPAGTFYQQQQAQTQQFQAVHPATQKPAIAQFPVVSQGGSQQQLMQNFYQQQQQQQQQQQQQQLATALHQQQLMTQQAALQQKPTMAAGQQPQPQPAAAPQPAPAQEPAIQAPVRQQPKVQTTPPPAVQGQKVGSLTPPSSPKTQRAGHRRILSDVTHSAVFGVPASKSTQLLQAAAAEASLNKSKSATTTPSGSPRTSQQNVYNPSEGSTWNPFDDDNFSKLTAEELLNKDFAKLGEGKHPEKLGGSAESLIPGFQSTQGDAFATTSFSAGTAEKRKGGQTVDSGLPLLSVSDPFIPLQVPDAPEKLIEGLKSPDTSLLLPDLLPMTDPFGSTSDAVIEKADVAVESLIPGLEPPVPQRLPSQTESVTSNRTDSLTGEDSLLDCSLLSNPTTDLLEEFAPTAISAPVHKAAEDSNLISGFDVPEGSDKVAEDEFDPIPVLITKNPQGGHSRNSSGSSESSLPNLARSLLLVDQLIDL
Details: not given
Here is the method:
The assays were performed in U-bottom 384-well plates. […] The reactions were initiated by the combination of bacterially expressed, GST-Xa-hAAK1 with substrates and test compounds. The reactions were incubated at room temperature for 3 hours and terminated by adding 60 μl of 35 mM EDTA buffer to each sample. The reactions were analyzed on the Caliper LabChip 3000 (Caliper, Hopkinton, Mass.) by electrophoretic separation of the fluorescent substrate and phosphorylated product. […] Compounds were dissolved at 10 mM in dimethylsulfoxide (DMSO) and evaluated at eleven concentrations. IC50 values were derived by non-linear regression analysis.
As to `COc1cc(-c2ccncc2)cc2nc([C@H](N)CC(C)C)[nH]c12` [Example 22, (R)-1-(7-methoxy-5-(pyridin-4-yl)-1H-benzo[d]imidazol-2-yl)-3-methylbutan-1-amine], the IC50 worked out at 52 nM.

Regarding `CC(c1nc2cc(-c3ccncc3)ccc2[nH]1)N1CCOCC1` (centres unmarked) [Example 79, 4-(1-(5-(pyridin-4-yl)-1H-benzo[d]imidazol-2-yl)ethyl)morpholine], the IC50 was determined as 591 nM.

For `CN[C@H](CC(C)C)c1nc2cc(-c3ccnc(N(C)C)c3)ccc2[nH]1` [Example 75, (R)-N,N-dimethyl-4-(2-(3-methyl-1-(methylamino)butyl)-1H-benzo[d]imidazol-5-yl) pyridin-2-amine], the IC50 was 244 nM.

In the case of `N[C@@H](c1nc2cc(-c3ccncc3)ccc2[nH]1)C1CCOCC1` [Example 77, (R)-(5-(pyridin-4-yl)-1H-benzo[d]imidazol-2-yl) (tetrahydro-2H-pyran-4-yl) methanamine], the IC50 was 436 nM.

`N[C@@H](c1nc2cc(-c3ccncc3)ccc2[nH]1)C1CC1` [Example 74, (R)-cyclopropyl (5-(pyridin-4-yl)-1H-benzo[d]imidazol-2-yl)methanamine]: the IC50 stood at 228 nM.

On to `COc1cc2[nH]c(CC3CCCC3)nc2cc1-c1cnco1` [Example 69, 5-(2-(cyclopentylmethyl)-6-methoxy-1H-benzo[d]imidazol-5-yl) oxazole], for which the IC50 stood at 57 nM.

As to `CC(C)C[C@@H](N)c1nc2cc(-c3ccnc4[nH]ccc34)ccc2[nH]1` [Example 6, (R)-1-(5-(1H-pyrrolo[2,3-b]pyridin-4-yl)-1H-benzo[d]imidazol-2-yl)-3-methylbutan-1-amine], the IC50 came out at 5 nM.

As for `CC(C)CCc1nc2ccc(-c3cnco3)cc2o1` [Example 100, 2-isopentyl-6-(oxazol-5-yl)benzo[d]oxazole], the IC50 was found to be 1020 nM.

As for `CC1CCCC(c2nc3ccc(-c4ccncc4)cc3[nH]2)C1` (centres unmarked) [Example 81, 2-(3-methylcyclohexyl)-6-(pyridin-4-yl)-1H-benzo[d]imidazole], the half-maximal inhibitory concentration (IC50) amounted to 1430 nM.

Turning to `CC(C)OCc1nc2ccc(-c3ccncc3)cc2[nH]1` [Example 54, 2-(isopropoxymethyl)-6-(pyridin-4-yl)-1H-benzo[d]imidazole], the IC50 amounted to 785 nM.

The same test, now with this note: ATP 22 μM; GST-Xa-hAAK1 3.5 nM; room temperature for 3 hours; Caliper LabChip 3000; read-out: AAK1 IC50.
Take `CC(C)C[C@@H](N)c1nc2ccc(-c3ccncc3)cc2n1C(C)C` [Example 44, (R)-1-(1-isopropyl-6-(pyridin-4-yl)-1H-benzo[d]imidazol-2-yl)-3-methylbutan-1-amine]: the IC50 amounted to 124 nM.

In the case of `CC(C)C[C@@H](N)c1nc2cc(-c3ccncc3)c(F)cc2[nH]1` [Example 30, (R)-1-(6-fluoro-5-(pyridin-4-yl)-1H-benzo[d]imidazol-2-yl)-3-methylbutan-1-amine], the IC50 was found to be 88 nM.

For `CC(C)CC(CN)c1nc2cc(-c3cnco3)ccc2[nH]1` (centres unmarked) [Example 65, 4-methyl-2-(5-(oxazol-5-yl)-1H-benzo[d]imidazol-2-yl)pentan-1-amine], the IC50 stood at 26 nM.

Consider `COc1cc(-c2cnco2)cc2nc([C@H](N)CC(C)C)[nH]c12` [Example 21, (R)-1-(7-methoxy-5-(oxazol-5-yl)-1H-benzo[d]imidazol-2-yl)-3-methylbutan-1-amine], for which the IC50 is 33 nM.

For `CCn1c([C@H](N)CC(C)C)nc2ccc(-c3cn[nH]c3)cc21` [Example 34, (R)-1-(1-ethyl-6-(1H-pyrazol-4-yl)-1H-benzo[d]imidazol-2-yl)-3-methylbutan-1-amine], the IC50 came out at 98 nM.

Take `COc1cc(-c2cc(OC)c3[nH]c([C@H](N)CC(C)C)nc3c2)ccn1` [Example 24, (R)-1-(7-methoxy-5-(2-methoxypyridin-4-yl)-1H-benzo[d]imidazol-2-yl)-3-methylbutan-1-amine]: the IC50 stood at 1590 nM.

Turning to `CC(C)C[C@@H](N)c1nc2cc(-c3ccnc(N)n3)ccc2[nH]1` [Example 16, (R)-4-(2-(1-amino-3-methylbutyl)-1H-benzo[d]imidazol-5-yl)pyrimidin-2-amine], the IC50 came to 202 nM.

For the molecule `CCn1c([C@H](N)CC(C)C)nc2cc(-c3cnco3)ccc21` [Example 46, (R)-1-(1-ethyl-5-(oxazol-5-yl)-1H-benzo[d]imidazol-2-yl)-3-methylbutan-1-amine], the IC50 is 1540 nM.

For the molecule `COCCn1c([C@H](N)CC(C)C)nc2ccc(-c3cnco3)cc21` [Example 39, (R)-1-(1-(2-methoxyethyl)-6-(oxazol-5-yl)-1H-benzo[d]imidazol-2-yl)-3-methylbutan-1-amine], the IC50 worked out at 6740 nM.

Consider `c1cc(-c2ccc3oc(CC4CCCC4)nc3c2)ccn1` [Example 90, 2-(cyclopentylmethyl)-5-(pyridin-4-yl)benzo[d]oxazole], for which the IC50 came to 818 nM.

Regarding `COc1cc(-c2cnco2)cc2[nH]c(CCC(C)C)nc12` [Example 26, 5-(2-isopentyl-4-methoxy-1H-benzo[d]imidazol-6-yl)oxazole], the IC50 was found to be 217 nM.

Turning to `CC(C)C[C@H](N)c1nc2cc(-c3cnco3)ccc2[nH]1` [Example 5, (S)-3-methyl-1-(5-(oxazol-5-yl)-1H-benzo[d]imidazol-2-yl)butan-1-amine], the IC50 is 93 nM.

With `CC(C)CC(C)c1nc2cc(-c3ccncc3)ccc2o1` (centres unmarked) [Example 88, 2-(4-methylpentan-2-yl)-5-(pyridin-4-yl)benzo[d]oxazole], the IC50 was determined as 62 nM.

For the molecule `CC(C)C[C@@H](N)c1nc2ccc(-c3ccncc3)cc2n1C` [Example 42, (R)-3-methyl-1-(1-methyl-6-(pyridin-4-yl)-1H-benzo[d]imidazol-2-yl)butan-1-amine], the IC50 was determined as 159 nM.

As to `CC(C)C[C@@H](N)c1nc2cc(-c3ccnc(F)c3)ccc2[nH]1` [Example 12, (R)-1-(5-(2-fluoropyridin-4-yl)-1H-benzo[d]imidazol-2-yl)-3-methylbutan-1-amine], the IC50 was 148 nM.

Consider `Cc1n[nH]c(C)c1-c1ccc2[nH]c([C@H](N)CC(C)C)nc2c1` [Example 19, (R)-1-(5-(3,5-dimethyl-1H-pyrazol-4-yl)-1H-benzo[d]imidazol-2-yl)-3-methylbutan-1-amine], for which the IC50 worked out at 41 nM.

As for `CC(C)C[C@@H](N)c1nc2cc(-c3ccnc(N)c3)ccc2[nH]1` [Example 18, (R)-4-(2-(1-amino-3-methylbutyl)-1H-benzo[d]imidazol-5-yl)pyridin-2-amine], the IC50 was found to be 19 nM.

For the molecule `COc1cc(-c2ccncc2)cc2[nH]c(CCC(C)C)nc12` [Example 25, 2-isopentyl-4-methoxy-6-(pyridin-4-yl)-1H-benzo[d]imidazole], the concentration for half-maximal inhibition (IC50) was determined as 380 nM.

Consider “(R)-1-(5-(1H-pyrazolo[3, 4-b]pyridin-4-yl)-1H-benzo[d]imidazol-2-yl)-3-methylbutan-1-amine [Example 7]”, for which the IC50 stood at 10 nM.

The test is the same for the next values; noted with them: read-out: AAK1 IC50.
For `CN[C@H](CC(C)C)c1nc2cc(-c3ccnnc3)ccc2[nH]1` [Example 109, (R)-N,3-dimethyl-1-(5-(pyridazin-4-yl)-1H-benzo[d]imidazol-2-yl)butan-1-amine], the IC50 was determined as 428 nM.

Regarding `COc1cnccc1-c1cc2nc([C@H](N)CC(C)C)[nH]c2cc1OC` [Example 27, (R)-1-(6-methoxy-5-(3-methoxypyridin-4-yl)-1H-benzo[d]imidazol-2-yl)-3-methylbutan-1-amine], the IC50 was 2000 nM.

Take `C/C(=C\C(C)C)c1nc2cc(-c3ccncc3)ccc2o1` [Example 86, (E)-2-(4-methylpent-2-en-2-yl)-5-(pyridin-4-yl)benzo[d]oxazole]: the IC50 was determined as 2310 nM.

For orientation: IC50 means the concentration that inhibits the measured activity by half.

These data come from patent publication US10035777B2, “Heterocyclic kinase inhibitors” (priority 2014, dated 2018).
